Reference: PubChem BioAssay (NCI)
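96-well plates; 48 h exposure; 5 concentrations. Endpoints by linear interpolation between flanking doses. Not reached: highest tested concentration assigned. TGI: total growth inhibition.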

Experiments:
Test in all cases: DTP human tumour cell line panel, 48 h
[1] = tested on: 786-0 renal
[2] = tested on: A498 renal
[3] = tested on: A549 NSCLC
[4] = tested on: ACHN renal
[5] = tested on: BT-549 breast
[6] = tested on: CAKI-1 renal
[7] = tested on: CCRF-CEM leukemia
[8] = tested on: COLO 205 colon
[9] = tested on: DU-145 prostate
[10] = tested on: EKVX NSCLC
[11] = tested on: HCC-2998 colon
[12] = tested on: HCT-116 colon
[13] = tested on: HCT-15 colon
[14] = tested on: HL-60(TB) leukemia
[15] = tested on: HOP-62 NSCLC
[16] = tested on: HOP-92 NSCLC
[17] = tested on: HS 578T breast
[18] = tested on: HT29 colon
[19] = tested on: IGROV1 ovarian
[20] = tested on: K-562 leukemia
[21] = tested on: KM12 colon
[22] = tested on: LOX IMVI melanoma
[23] = tested on: M14 melanoma
[24] = tested on: MALME-3M melanoma
[25] = tested on: MCF7 breast
[26] = tested on: MDA-MB-231 breast
[27] = tested on: MDA-MB-435
[28] = tested on: MDA-N
[29] = tested on: MOLT-4 leukemia
[30] = tested on: NCI-H226 lung
[31] = tested on: NCI-H23 lung
[32] = tested on: NCI-H460 lung
[33] = tested on: NCI-H522 lung
[34] = tested on: NCI/ADR-RES ovarian
[35] = tested on: OVCAR-3 ovarian
[36] = tested on: OVCAR-4 ovarian
[37] = tested on: OVCAR-5 ovarian
[38] = tested on: OVCAR-8 ovarian
[39] = tested on: PC-3 prostate
[40] = tested on: RPMI-8226 leukemia
[41] = tested on: RXF 393 renal
[42] = tested on: SF-268 CNS
[43] = tested on: SF-295 CNS
[44] = tested on: SF-539 CNS
[45] = tested on: SK-MEL-2 melanoma
[46] = tested on: SK-MEL-28 melanoma
[47] = tested on: SK-MEL-5 melanoma
[48] = tested on: SK-OV-3 ovarian
[49] = tested on: SN12C renal
[50] = tested on: SNB-19 CNS
[51] = tested on: SNB-75 CNS
[52] = tested on: SR leukemia
[53] = tested on: SW-620 colon
[54] = tested on: T-47D breast
[55] = tested on: TK-10 renal
[56] = tested on: U251 CNS
[57] = tested on: UACC-257 melanoma
[58] = tested on: UACC-62 melanoma
[59] = tested on: UO-31 renal

Q: What does the source list for `c1ccc2c(Cc3[nH]c4ccccc4c3Cc3c[nH]c4ccccc34)c[nH]c2c1`?
A: TGI [1]: 4.25 µM; TGI [2]: 5.73 µM; TGI [3]: 21.6 µM; TGI [4]: > 36 µM; TGI [5]: 19.5 µM; TGI [6]: 10.3 µM; TGI [7]: 8.98 µM; TGI [8]: 3.99 µM; TGI [9]: 4.48 µM; TGI [10]: 11.4 µM; TGI [11]: 3.26 µM; TGI [12]: 3.47 µM; TGI [13]: 10.5 µM; TGI [14]: 4.58 µM; TGI [15]: 12.7 µM; TGI [16]: 18.1 µM; TGI [17]: 5.54 µM; TGI [18]: 6.07 µM; TGI [19]: 13.7 µM; TGI [20]: 10.5 µM; TGI [21]: 4.84 µM; TGI [22]: 5.57 µM; TGI [23]: 6.71 µM; TGI [24]: 6.3 µM; TGI [25]: > 26.5 µM; TGI [26]: 5.29 µM; TGI [27]: 5.16 µM; TGI [28]: 5.47 µM; TGI [29]: 12 µM; TGI [30]: 24.5 µM; TGI [31]: 7.49 µM; TGI [32]: 4.17 µM; TGI [33]: 3.76 µM; TGI [34]: 17.2 µM; TGI [35]: 9.68 µM; TGI [36]: 13.2 µM; TGI [37]: 8.93 µM; TGI [38]: 35.6 µM; TGI [39]: 8.37 µM; TGI [40]: 12.2 µM; TGI [41]: 5.8 µM; TGI [42]: 4.86 µM; TGI [43]: 16.3 µM; TGI [44]: 7.03 µM; TGI [45]: 7.71 µM; TGI [46]: 23.9 µM; TGI [47]: 6.05 µM; TGI [48]: 15.4 µM; TGI [49]: 4.2 µM; TGI [50]: 25.3 µM; TGI [51]: 9.69 µM; TGI [52]: 15.1 µM; TGI [53]: 5.59 µM; TGI [54]: 12.8 µM; TGI [55]: 8.1 µM; TGI [56]: 9.78 µM; TGI [57]: 8.47 µM; TGI [58]: > 32.4 µM; TGI [59]: 11.1 µM

Q: For `O=c1cc(N=Nc2ccc(Br)cc2)[nH]c(=S)[nH]1`, which TGI [1] is on record?
A: Its TGI is 17.1 µM.

Q: What about the TGI [3] of the same compound?
A: Its TGI is > 100 µM.

Q: What about the TGI [4] of the same compound?
A: The TGI was 40.8 µM.

Q: What about the TGI [5] of the same compound?
A: The TGI was > 100 µM.

Q: What about the TGI [6] of the same compound?
A: Its TGI is 23 µM.

Q: What about the TGI [7] of the same compound?
A: Its TGI is 54.5 µM.

Q: What about the TGI [8] of the same compound?
A: The TGI was 45.1 µM.

Q: And the TGI [9]?
A: The TGI was > 100 µM.

Q: And the TGI [10]?
A: Its TGI is 39.6 µM.

Q: What about the TGI [11] of the same compound?
A: Its TGI is 38.6 µM.

Q: What about the TGI [12] of the same compound?
A: Its TGI is 35.6 µM.

Q: And the TGI [13]?
A: The TGI was 29.8 µM.

Q: And the TGI [14]?
A: The TGI was 58.6 µM.

Q: And the TGI [15]?
A: Its TGI is > 100 µM.

Q: And the TGI [16]?
A: The TGI was 50.5 µM.

Q: What about the TGI [17] of the same compound?
A: Its TGI is > 100 µM.

Q: And the TGI [18]?
A: The TGI was 34.2 µM.

Q: And the TGI [19]?
A: Its TGI is > 100 µM.

Q: And the TGI [20]?
A: The TGI was 54.4 µM.

Q: What about the TGI [21] of the same compound?
A: The TGI was > 100 µM.

Q: And the TGI [22]?
A: The TGI was 29.4 µM.

Q: What about the TGI [23] of the same compound?
A: The TGI was 29.1 µM.

Q: What about the TGI [24] of the same compound?
A: Its TGI is 30.8 µM.

Q: What about the TGI [25] of the same compound?
A: Its TGI is 42.7 µM.

Q: And the TGI [26]?
A: The TGI was 34.3 µM.

Q: What about the TGI [27] of the same compound?
A: Its TGI is 38.1 µM.

Q: What about the TGI [28] of the same compound?
A: The TGI was > 100 µM.

Q: What about the TGI [29] of the same compound?
A: Its TGI is 63.3 µM.

Q: What about the TGI [30] of the same compound?
A: The TGI was > 100 µM.

Q: And the TGI [31]?
A: Its TGI is > 100 µM.

Q: What about the TGI [32] of the same compound?
A: Its TGI is > 100 µM.

Q: And the TGI [33]?
A: The TGI was 38 µM.

Q: What about the TGI [34] of the same compound?
A: The TGI was > 100 µM.

Q: And the TGI [35]?
A: Its TGI is 28.9 µM.

Q: And the TGI [36]?
A: Its TGI is 34.3 µM.

Q: And the TGI [37]?
A: The TGI was > 100 µM.

Q: What about the TGI [38] of the same compound?
A: Its TGI is 51.3 µM.

Q: And the TGI [39]?
A: The TGI was > 100 µM.

Q: And the TGI [40]?
A: The TGI was 57.9 µM.

Q: What about the TGI [41] of the same compound?
A: Its TGI is 45.4 µM.

Q: What about the TGI [42] of the same compound?
A: The TGI was > 100 µM.

Q: What about the TGI [43] of the same compound?
A: Its TGI is > 100 µM.

Q: And the TGI [44]?
A: Its TGI is > 100 µM.

Q: What about the TGI [45] of the same compound?
A: Its TGI is 33.3 µM.

Q: What about the TGI [46] of the same compound?
A: The TGI was 53.2 µM.

Q: What about the TGI [47] of the same compound?
A: Its TGI is > 100 µM.

Q: What about the TGI [48] of the same compound?
A: Its TGI is > 100 µM.

Q: What about the TGI [49] of the same compound?
A: Its TGI is > 100 µM.

Q: And the TGI [50]?
A: The TGI was > 100 µM.

Q: And the TGI [51]?
A: Its TGI is > 100 µM.

Q: What about the TGI [52] of the same compound?
A: Its TGI is 74.1 µM.

Q: And the TGI [53]?
A: Its TGI is 64.5 µM.

Q: What about the TGI [54] of the same compound?
A: The TGI was 62.4 µM.

Q: What about the TGI [55] of the same compound?
A: Its TGI is 32.1 µM.

Q: What about the TGI [56] of the same compound?
A: The TGI was > 100 µM.

Q: What about the TGI [57] of the same compound?
A: Its TGI is 67.7 µM.

Q: What about the TGI [58] of the same compound?
A: The TGI was > 100 µM.

Q: What about the TGI [59] of the same compound?
A: Its TGI is > 100 µM.
